Test results published in ChEMBL document CHEMBL1136066, “Non-covalent thrombin inhibitors featuring P(3)-heterocycles with P(1)-monocyclic arginine surrogates” (Bioorg Med Chem Lett, 2002).

Legend:
Coagulation factor X [1] = molecular target: T1, Coagulation factor X (Homo sapiens, UniProt P00742)
Prothrombin = Prothrombin (Homo sapiens, UniProt P00734); test: In vitro inhibitory constant against human thrombin (FIIa).
Serine protease 1 [2] = molecular target: T2, Serine protease 1 (Homo sapiens, UniProt P07477)
T2 sequence (P07477 whole entry): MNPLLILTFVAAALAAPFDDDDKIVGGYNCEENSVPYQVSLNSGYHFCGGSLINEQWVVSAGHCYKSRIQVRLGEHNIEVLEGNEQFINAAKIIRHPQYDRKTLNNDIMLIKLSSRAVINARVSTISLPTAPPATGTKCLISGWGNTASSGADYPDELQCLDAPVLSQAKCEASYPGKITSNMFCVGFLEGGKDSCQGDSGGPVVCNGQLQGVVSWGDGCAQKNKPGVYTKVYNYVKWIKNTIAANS

Serine protease 1 [3] = molecular target: T2, Serine protease 1; remark: listed apart in the source
Coagulation factor X [4] = molecular target: T1, Coagulation factor X; remark: listed apart in the source

T1 sequence (P00742 41-179 limits assumed): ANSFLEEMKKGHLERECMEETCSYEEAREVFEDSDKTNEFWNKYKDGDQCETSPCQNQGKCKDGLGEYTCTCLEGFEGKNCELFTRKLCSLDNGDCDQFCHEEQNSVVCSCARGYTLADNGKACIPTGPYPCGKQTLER
T1 sequence (P00742 235-488 limits assumed): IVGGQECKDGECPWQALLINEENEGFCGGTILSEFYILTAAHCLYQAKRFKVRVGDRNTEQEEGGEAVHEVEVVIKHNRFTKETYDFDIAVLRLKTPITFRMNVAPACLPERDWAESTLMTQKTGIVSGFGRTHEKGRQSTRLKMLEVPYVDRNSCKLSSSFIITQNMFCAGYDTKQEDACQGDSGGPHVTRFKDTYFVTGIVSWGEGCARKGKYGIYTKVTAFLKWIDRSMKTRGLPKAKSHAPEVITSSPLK

| SMILES | Ki (Coagulation factor X [1]) | Ki (Prothrombin) [nM] | Ki (Serine protease 1 [2]) | Ki (Serine protease 1 [3]) [nM] | Ki (Coagulation factor X [4]) [nM] |
| --- | --- | --- | --- | --- | --- |
| Cc1nc(N)ncc1CNC(=O)Cn1c(C)cnc(NCCc2ccc3c(c2)CCO3)c1=O | Not Active | 324 | Not Active |  |  |
| Cc1cnc(NCCc2ccccc2)c(=O)n1CC(=O)NCc1cnc(N)cn1 | Not Active |  | Not Active |  |  |
| Cc1ccc(NS(=O)(=O)Cc2ccccc2)c(=O)n1CC(=O)NCc1nc(CN)cs1 |  | 136 |  | > 168 | > 338 |
| Cc1nc(N)ncc1CNC(=O)Cn1c(C)cnc(NCCc2ccccc2)c1=O | Not Active | 197 | Not Active |  |  |
| Cc1ccc(NS(=O)(=O)Cc2ccccc2)c(=O)n1CC(=O)NCc1cnc(N)cn1 | Not Active | 158 | Not Active |  |  |
| Cc1cnc(NCCc2ccccc2)c(=O)n1CC(=O)NCc1ccc(C(=N)N)cc1 | Not Active |  |  | 19.7 |  |
| Cc1cnc(NCCc2ccccc2)c(=O)n1CC(=O)NCc1cnc(N)nc1 | Not Active | 357 | Not Active |  |  |
| COc1cccc(S(=O)(=O)Nc2cccn(CC(=O)NCc3ccc(C(=N)N)cc3)c2=O)c1 |  | 5.3 |  | 18.7 | 153 |
| Cc1nc(N)ncc1CNC(=O)Cn1c(C)cnc(NCC(F)(F)c2ccccc2)c1=O | Not Active | 141 | Not Active |  |  |
| Cc1cnc(NCCc2ccccc2)c(=O)n1CC(=O)NC[C@@H]1CNC(N)=N[C@@H]1C | Not Active | 3.2 | Not Active |  |  |
| Cc1ccc(NS(=O)(=O)Cc2ccccc2)c(=O)n1CC(=O)NCc1ccc(C(=N)N)c(F)c1 | Not Active | 3.6 | Not Active |  |  |
| Cc1cnc(NCCc2ccccc2)c(=O)n1CC(=O)NCc1ccc(C(=N)NO)s1 | Not Active | 30.8 | Not Active |  |  |
| Cc1ccc(NS(=O)(=O)Cc2ccccc2)c(=O)n1CC(=O)NCc1ccc(C(=N)N)s1 |  | 0.1 |  | 13.6 | 96.4 |
| Cc1cnc(NCC2(c3ccc(Cl)cc3)CCC2)c(=O)n1CC(=O)NCc1cnc(N)cn1 | Not Active | 5.5 | Not Active |  |  |
| Cc1nc(N)ncc1CNC(=O)Cn1c(C)ccc(NS(=O)(=O)Cc2cccc3c2OCCO3)c1=O | Not Active |  | Not Active |  |  |
| Cc1nc(N)nc(C)c1CNC(=O)Cn1c(C)ccc(NS(=O)(=O)Cc2ccccc2)c1=O | Not Active | 281 | Not Active |  |  |
| Cc1ccc(NS(=O)(=O)Cc2ccccc2)c(=O)n1CC(=O)NCc1ccc(C(=N)N)cc1 | Not Active | 0.37 |  | 49.3 |  |

| SMILES | Ki (Coagulation factor X [1]) | Ki (Prothrombin) [nM] | Ki (Serine protease 1 [2]) | Ki (Serine protease 1 [3]) [nM] | Ki (Coagulation factor X [4]) [nM] |
| --- | --- | --- | --- | --- | --- |
| Cc1cnc(NCC(F)(F)c2ccc(F)cc2)c(=O)n1CC(=O)NCc1cnc(N)cn1 | Not Active | 5.9 | Not Active |  |  |
| Cc1ccc(NS(=O)(=O)Cc2ccccc2)c(=O)n1CC(=O)NCc1cnc(N)nc1 | Not Active | 462 | Not Active |  |  |
| COc1cccc(S(=O)(=O)Nc2cccn(CC(=O)NCc3nc(C(=N)N)cs3)c2=O)c1 |  | 5.9 |  | > 168 | 179 |
| Cc1ccc(NS(=O)(=O)Cc2ccccc2)c(=O)n1CC(=O)NCC1CN=C(N)NC1 (stereo unspecified) | Not Active | 1 | Not Active |  |  |
| COC(=O)c1ccc(F)cc1CS(=O)(=O)Nc1ccc(C)n(CC(=O)N[C@H](CCCN=C(N)N)C(=O)O)c1=O |  | 0.1 |  | 16.6 | 1810 |
| Cc1ccc(NS(=O)(=O)Cc2ccccc2)c(=O)n1CC(=O)NC[C@@H]1CNC(N)=N[C@@H]1C | Not Active | 1.1 | Not Active |  |  |
| Cc1cnc(NCCc2ccccc2)c(=O)n1CC(=O)NCc1ccc(C(=N)N)s1 | Not Active | 0.12 |  | 4.4 |  |
| COc1cccc(S(=O)(=O)Nc2cccn(CC(=O)NCc3ccc(C(=N)N)cc3F)c2=O)c1 |  | 6 |  | 31.3 | 249 |
| Cc1cnc(NCC(F)(F)c2ccccc2)c(=O)n1CC(=O)NCc1cnc(N)cn1 | Not Active | 9.8 | Not Active |  |  |
| COc1cccc(S(=O)(=O)Nc2cccn(CC(=O)NCc3ccc(C(=N)N)cc3Cl)c2=O)c1 |  | 20.8 |  | 76.5 |  |
| Cc1nc(N)ncc1CNC(=O)Cn1c(C)ccc(NS(=O)(=O)Cc2ccccc2)c1=O | Not Active | 85.2 | Not Active |  |  |
| COc1cccc(S(=O)(=O)Nc2cccn(CC(=O)NCc3ccc(C(=N)N)cc3OC)c2=O)c1 |  | 1.6 |  | 11.9 | 76.8 |
| Cc1cnc(NCCc2ccccc2)c(=O)n1CC(=O)NCc1ccc(C(=N)NO[Si](C)(C)C(C)(C)C)s1 | Not Active | 13.2 | Not Active |  |  |
| Cc1cnc(NCCc2ccccc2)c(=O)n1CC(=O)NCC1CN=C(N)NC1 (stereo unspecified) | Not Active | 1.9 | Not Active |  |  |
| Cc1ccc(NS(=O)(=O)Cc2ccccc2F)c(=O)n1CC(=O)N[C@H](CCCNC(=N)N)C(=O)O [CVS-2359] |  | 0.14 |  | 12.4 | 674 |
| Cc1nc(N)ccc1CNC(=O)Cn1c(C)ccc(NS(=O)(=O)Cc2ccccc2)c1=O [L-374087] |  | 0.68 | Not Active |  |  |
| Cc1nc(N)ccc1CNC(=O)Cn1c(C)cnc(NCCc2ccccc2)c1=O [L-375378] |  | 1 | Not Active |  |  |
